Data taken from ChEMBL document CHEMBL4334526, “Synthesis of Peptoid-Based Class I-Selective Histone Deacetylase Inhibitors with Chemosensitizing Properties” (J Med Chem, 2019).
The source made the active and inactive calls. The calls are words filed in the database; no cut-off is given here.

Columns and labels:
Histone deacetylase 1 = Histone deacetylase 1 (Homo sapiens, UniProt Q13547); assay: Inhibition of recombinant human full length C-terminal His/FLAG-tagged HDAC1 expressed in baculovirus infected Sf9 insect cells using ZMAL as substrate incubated for 90 mins by fluorescence assay
A2780 [1] = assay: Cytotoxicity against human A2780 cells assessed as reduction in cell survival measured after 72 hrs by MTT assay; type: functional, cell-based; details: A2780, 72 h
Histone deacetylase [2] = assay: Inhibition of HDAC in human A2780 cells using Boc-Lys(epsilon-Ac)-AMC as substrate preincubated for 18 hrs followed by substrate addition and measured after 3 hrs by fluorescence assay; type: cell-based
CAL-27 [3] = assay: Cytotoxicity against human CAL27 cells assessed as reduction in cell survival measured after 72 hrs by MTT assay; type: functional, cell-based; details: CAL-27, 72 h
[4] = target: Histone deacetylase 3/Nuclear receptor corepressor 2 (HDAC3/NCoR2) (Homo sapiens, UniProt O15379); assay: biochemical; type: cell-based, Sf9
Description: Inhibition of human recombinant full length C-terminal His-tagged HDAC3 (1 to 428 residues)/N-terminal GST-tagged NCOR2 (395 to 489 residues) expressed in baculovirus infected Sf9 insect cells using Boc-Lys(epsilon-acetyl)-AMC as substrate incubated for 90 mins by fluorescence assay

Histone deacetylase 2 [5] = target: T1, Histone deacetylase 2 (Homo sapiens, UniProt Q92769); assay: Inhibition of recombinant human full length C-terminal FLAG-tagged HDAC2 expressed in baculovirus infected Sf9 insect cells using Boc-Lys(epsilon-acetyl)-AMC as substrate incubated for 90 mins by fluorescence assay; type: cell-based
Histone deacetylase [6] = assay: Inhibition of HDAC in human CAL27 cells using Boc-Lys(epsilon-Ac)-AMC as substrate preincubated for 18 hrs followed by substrate addition and measured after 3 hrs by fluorescence assay; type: cell-based
[7] = target: T2, Protein deacetylase HDAC6 (Homo sapiens, UniProt Q9UBN7); assay: Inhibition of human full length N-terminal GST-tagged HDAC6 expressed in baculovirus infected Sf9 insect cells ZMAL as substrate incubated for 90 mins by fluorescence assay; type: cell-based
T2 sequence (Q9UBN7 whole entry): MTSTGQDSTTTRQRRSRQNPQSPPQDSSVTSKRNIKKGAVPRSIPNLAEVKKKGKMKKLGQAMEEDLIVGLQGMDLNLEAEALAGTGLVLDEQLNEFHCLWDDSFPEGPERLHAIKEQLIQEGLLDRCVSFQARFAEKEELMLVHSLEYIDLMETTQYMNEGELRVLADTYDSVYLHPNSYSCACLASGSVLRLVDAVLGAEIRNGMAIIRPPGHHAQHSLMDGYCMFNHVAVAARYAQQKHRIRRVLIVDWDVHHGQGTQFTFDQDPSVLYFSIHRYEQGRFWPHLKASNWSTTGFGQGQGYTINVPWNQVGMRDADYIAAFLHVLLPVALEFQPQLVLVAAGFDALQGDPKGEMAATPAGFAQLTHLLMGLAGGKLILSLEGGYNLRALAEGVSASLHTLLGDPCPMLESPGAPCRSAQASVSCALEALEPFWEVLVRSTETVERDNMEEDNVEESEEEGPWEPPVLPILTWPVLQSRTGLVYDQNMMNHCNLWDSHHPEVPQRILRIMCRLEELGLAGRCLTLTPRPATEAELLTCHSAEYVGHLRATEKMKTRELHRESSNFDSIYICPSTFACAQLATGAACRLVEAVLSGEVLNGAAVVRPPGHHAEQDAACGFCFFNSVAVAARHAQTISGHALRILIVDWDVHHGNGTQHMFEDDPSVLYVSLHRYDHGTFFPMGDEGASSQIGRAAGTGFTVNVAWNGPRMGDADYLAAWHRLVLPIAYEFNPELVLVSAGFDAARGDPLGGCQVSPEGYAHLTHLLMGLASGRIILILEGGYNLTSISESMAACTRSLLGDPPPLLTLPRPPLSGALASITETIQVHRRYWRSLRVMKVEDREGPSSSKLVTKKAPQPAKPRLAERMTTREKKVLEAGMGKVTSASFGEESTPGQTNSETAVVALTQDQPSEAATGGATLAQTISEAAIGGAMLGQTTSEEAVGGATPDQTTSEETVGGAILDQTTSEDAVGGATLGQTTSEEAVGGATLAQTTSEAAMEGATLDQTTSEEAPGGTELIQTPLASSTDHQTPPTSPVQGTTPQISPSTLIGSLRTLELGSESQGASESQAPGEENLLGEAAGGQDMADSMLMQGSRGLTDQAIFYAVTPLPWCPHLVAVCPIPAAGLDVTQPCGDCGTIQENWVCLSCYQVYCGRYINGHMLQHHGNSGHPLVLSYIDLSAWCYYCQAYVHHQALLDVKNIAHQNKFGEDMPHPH

Histone deacetylase 2 [8] = target: T1, Histone deacetylase 2; assay: Inhibition of recombinant human full length C-terminal FLAG-tagged HDAC2 expressed in baculovirus infected Sf9 insect cells at 10 uM using Boc-Lys(epsilon-acetyl)-AMC as substrate incubated for 90 mins by fluorescence assay relative to control
[9] = target: Histone deacetylase 3/Nuclear receptor corepressor 2 (HDAC3/NCoR2) (Homo sapiens) (UniProt O15379+Q9Y618); assay: Inhibition of human recombinant full length C-terminal His-tagged HDAC3 (1 to 428 residues)/N-terminal GST-tagged NCOR2 (395 to 489 residues) expressed in baculovirus infected Sf9 insect cells at 10 uM using Boc-Lys(epsilon-acetyl)-AMC as substrate incubated for 90 mins by fluorescence assay relative to control
CAL-27 [10] = assay: Potency index, ratio of vorinostat IC50 to test compound IC50 for cytotoxicity against human CAL27 cells; type: functional
Histone deacetylase 2 [11] = target: T1, Histone deacetylase 2; assay: Inhibition of recombinant human full length C-terminal FLAG-tagged HDAC2 expressed in baculovirus infected Sf9 insect cells at 3.33 uM using Boc-Lys(epsilon-acetyl)-AMC as substrate incubated for 90 mins by fluorescence assay relative to control
A2780 [12] = assay: Cytotoxicity against human A2780 cells assessed as reduction in cell survival up to 100 uM measured after 72 hrs by MTT assay; type: functional, cell-based

Sequence of Histone deacetylase 1 (Q13547 whole entry): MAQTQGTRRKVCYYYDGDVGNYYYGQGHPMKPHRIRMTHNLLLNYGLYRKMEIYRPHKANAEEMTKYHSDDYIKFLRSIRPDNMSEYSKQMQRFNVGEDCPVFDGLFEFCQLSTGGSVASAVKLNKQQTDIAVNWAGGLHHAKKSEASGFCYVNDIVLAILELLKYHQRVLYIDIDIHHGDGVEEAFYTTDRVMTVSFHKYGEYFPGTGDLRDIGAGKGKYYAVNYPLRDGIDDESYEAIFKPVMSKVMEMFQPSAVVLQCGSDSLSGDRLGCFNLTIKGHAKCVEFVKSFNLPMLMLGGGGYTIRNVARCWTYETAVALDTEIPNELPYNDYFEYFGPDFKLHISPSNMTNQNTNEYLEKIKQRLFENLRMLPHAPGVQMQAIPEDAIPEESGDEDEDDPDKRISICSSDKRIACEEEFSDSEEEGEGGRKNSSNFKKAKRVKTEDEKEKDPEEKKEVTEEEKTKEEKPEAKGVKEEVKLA
Sequence of Histone deacetylase 3/Nuclear receptor corepressor 2 (HDAC3/NCoR2) (O15379 whole entry): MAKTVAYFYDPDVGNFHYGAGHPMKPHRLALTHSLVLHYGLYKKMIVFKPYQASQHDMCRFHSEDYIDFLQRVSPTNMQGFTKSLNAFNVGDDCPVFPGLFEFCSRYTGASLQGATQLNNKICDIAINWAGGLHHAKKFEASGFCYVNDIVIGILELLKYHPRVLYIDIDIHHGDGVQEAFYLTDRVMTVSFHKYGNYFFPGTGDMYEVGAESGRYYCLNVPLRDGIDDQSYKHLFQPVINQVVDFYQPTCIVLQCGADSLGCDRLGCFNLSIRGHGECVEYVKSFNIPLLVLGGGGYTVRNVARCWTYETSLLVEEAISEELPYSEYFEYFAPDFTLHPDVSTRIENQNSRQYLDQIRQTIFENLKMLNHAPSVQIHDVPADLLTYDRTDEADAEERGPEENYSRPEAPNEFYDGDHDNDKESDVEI
Sequence of Histone deacetylase 3/Nuclear receptor corepressor 2 (HDAC3/NCoR2) (Q9Y618 whole entry, further chain): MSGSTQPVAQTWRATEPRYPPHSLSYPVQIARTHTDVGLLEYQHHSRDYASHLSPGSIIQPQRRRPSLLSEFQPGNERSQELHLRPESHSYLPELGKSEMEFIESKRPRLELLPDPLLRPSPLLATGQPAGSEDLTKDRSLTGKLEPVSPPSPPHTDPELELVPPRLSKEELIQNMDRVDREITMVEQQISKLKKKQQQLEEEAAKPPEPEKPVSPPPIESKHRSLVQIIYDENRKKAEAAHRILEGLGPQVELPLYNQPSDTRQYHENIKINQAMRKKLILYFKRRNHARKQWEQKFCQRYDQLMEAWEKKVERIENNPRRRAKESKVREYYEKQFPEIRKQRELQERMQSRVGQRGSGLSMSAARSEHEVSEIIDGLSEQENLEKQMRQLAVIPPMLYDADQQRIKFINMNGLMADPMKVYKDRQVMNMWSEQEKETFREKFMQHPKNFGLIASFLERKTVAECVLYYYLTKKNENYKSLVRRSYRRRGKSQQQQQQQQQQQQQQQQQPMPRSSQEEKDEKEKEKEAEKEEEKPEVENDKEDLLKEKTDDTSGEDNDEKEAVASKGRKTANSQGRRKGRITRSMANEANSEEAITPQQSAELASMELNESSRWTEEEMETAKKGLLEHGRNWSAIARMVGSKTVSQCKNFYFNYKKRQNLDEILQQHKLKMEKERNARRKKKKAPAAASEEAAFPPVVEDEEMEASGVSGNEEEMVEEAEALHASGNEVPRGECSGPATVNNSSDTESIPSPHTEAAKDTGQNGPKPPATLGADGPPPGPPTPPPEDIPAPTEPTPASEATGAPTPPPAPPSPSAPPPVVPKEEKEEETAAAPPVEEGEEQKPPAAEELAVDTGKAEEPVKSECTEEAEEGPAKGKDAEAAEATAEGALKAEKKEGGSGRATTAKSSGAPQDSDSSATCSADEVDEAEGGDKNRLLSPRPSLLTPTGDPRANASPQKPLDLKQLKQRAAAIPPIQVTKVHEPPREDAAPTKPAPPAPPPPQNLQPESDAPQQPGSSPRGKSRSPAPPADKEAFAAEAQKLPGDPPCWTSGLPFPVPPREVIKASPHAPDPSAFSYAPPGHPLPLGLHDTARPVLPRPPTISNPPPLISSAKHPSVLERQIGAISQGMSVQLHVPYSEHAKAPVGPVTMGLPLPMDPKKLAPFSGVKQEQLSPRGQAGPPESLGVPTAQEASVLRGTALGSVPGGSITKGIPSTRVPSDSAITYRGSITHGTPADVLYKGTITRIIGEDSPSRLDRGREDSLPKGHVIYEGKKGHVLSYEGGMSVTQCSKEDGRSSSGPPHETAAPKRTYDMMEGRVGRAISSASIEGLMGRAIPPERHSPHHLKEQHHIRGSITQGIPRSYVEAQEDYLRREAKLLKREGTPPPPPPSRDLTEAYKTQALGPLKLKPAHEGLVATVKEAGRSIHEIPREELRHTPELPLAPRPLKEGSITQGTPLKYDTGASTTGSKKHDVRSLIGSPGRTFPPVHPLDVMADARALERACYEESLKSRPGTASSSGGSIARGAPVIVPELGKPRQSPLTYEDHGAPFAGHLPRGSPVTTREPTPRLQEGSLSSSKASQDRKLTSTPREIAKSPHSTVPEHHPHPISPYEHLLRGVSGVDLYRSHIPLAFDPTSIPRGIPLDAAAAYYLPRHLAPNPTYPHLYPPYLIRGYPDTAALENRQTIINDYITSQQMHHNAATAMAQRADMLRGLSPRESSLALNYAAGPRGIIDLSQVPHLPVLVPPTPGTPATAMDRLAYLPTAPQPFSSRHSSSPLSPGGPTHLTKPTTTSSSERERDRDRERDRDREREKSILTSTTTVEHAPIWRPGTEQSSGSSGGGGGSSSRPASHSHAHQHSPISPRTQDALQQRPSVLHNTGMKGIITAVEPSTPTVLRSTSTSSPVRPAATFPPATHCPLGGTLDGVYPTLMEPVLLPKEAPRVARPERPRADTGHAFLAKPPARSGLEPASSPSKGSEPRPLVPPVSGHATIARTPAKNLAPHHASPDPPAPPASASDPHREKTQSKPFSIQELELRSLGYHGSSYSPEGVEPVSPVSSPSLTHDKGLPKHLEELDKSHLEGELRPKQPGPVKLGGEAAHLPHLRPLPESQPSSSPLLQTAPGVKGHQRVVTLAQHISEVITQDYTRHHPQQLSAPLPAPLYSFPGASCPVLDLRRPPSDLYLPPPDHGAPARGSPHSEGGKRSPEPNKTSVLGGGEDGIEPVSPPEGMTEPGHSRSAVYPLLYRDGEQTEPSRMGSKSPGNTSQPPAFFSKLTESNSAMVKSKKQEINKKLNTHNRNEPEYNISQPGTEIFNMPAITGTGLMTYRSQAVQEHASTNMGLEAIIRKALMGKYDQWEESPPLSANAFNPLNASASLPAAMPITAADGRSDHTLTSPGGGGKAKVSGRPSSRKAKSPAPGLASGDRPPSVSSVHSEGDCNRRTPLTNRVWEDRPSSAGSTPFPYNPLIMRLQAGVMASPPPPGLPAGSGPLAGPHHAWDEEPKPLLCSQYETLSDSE
T1 sequence (Q92769 whole entry): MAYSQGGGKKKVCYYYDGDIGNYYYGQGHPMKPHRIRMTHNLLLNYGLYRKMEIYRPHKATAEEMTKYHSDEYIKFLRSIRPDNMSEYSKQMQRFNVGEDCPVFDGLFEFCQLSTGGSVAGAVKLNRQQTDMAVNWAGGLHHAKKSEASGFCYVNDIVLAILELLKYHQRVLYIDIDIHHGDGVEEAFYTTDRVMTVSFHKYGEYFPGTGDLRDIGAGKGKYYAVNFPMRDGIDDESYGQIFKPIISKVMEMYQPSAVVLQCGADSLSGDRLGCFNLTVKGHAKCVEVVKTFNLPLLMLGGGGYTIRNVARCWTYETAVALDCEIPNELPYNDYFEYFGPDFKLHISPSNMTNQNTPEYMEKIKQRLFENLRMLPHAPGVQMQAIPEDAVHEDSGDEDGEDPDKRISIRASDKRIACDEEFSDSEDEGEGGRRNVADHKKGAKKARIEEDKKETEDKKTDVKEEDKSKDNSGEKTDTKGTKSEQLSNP

Structure (SMILES)	IC50 (Histone deacetylase 1) [µM]	IC50 (A2780 [1]) [µM]	IC50 (Histone deacetylase [2]) [µM]	IC50 (CAL-27 [3]) [µM]	IC50 [4] [µM]	IC50 (Histone deacetylase 2 [5]) [µM]	IC50 (Histone deacetylase [6]) [µM]	IC50 [7] [µM]	inhibition (Histone deacetylase 2 [8]) [%]	inhibition [9] [%]	Ratio IC50 (CAL-27 [10])	inhibition (Histone deacetylase 2 [11]) [%]	Activity (A2780 [12])
Nc1ccccc1NC(=O)CCCCCN(CC(=O)NC1CCCCC1)C(=O)c1ccccc1	5.46	181	43.6	30.9	0.858	5.95	21.9	> 10					
COc1ccc(CNC(=O)CN(CCCCCC(=O)Nc2ccccc2N)C(=O)c2cc(C)cc(C)c2)cc1	2.08	24.6	3.53	17.4			4.81	> 10	30	49			
Cc1cc(C)cc(C(=O)N(CCCCCC(=O)Nc2ccccc2N)CC(=O)NC2CCCCC2)c1	5.55	42	22.8	17.5	0.481	6.66	12.1	> 10					
Cc1cc(C)cc(C(=O)N(CC(=O)NCc2ccccc2)Cc2ccc(C(=O)Nc3cc(F)ccc3N)cc2)c1	0.277	5.4	1.43	5.72			0.47	> 10	25	23			
Cc1cc(C)cc(C(=O)N(CC(=O)NCc2ccccc2)Cc2ccc(C(=O)Nc3ccccc3N)cc2)c1	0.062	2.8	0.81	1.6		0.485	0.18	> 10		32	1.7		
Nc1ccccc1NC(=O)CCCCCN(CC(=O)NCc1ccccc1)C(=O)c1cccc2ccccc12	1.67	22.8	10.2	11	0.163	1.9	4.13	> 10					
Nc1ccccc1NC(=O)CCCCCN(CC(=O)NC1CCCCC1)C(=O)c1cccc2ccccc12	6.56	18.1	33.1	24.9	0.646	5.38	13	> 10					
CN(C)c1ccc(C(=O)N(CCCCCC(=O)Nc2ccccc2N)CC(=O)NCc2ccccc2)cc1	1.58	18.5	9.25	16	0.312	1.24	4.33	> 10					
Cc1cc(C)cc(CNC(=O)CN(CCCCCC(=O)Nc2ccccc2N)C(=O)c2cc(C)cc(C)c2)c1	0.484	5.1	3.17	19.3	0.583	4.1	3.15	> 10					
CN(C)c1ccc(C(=O)N(CC(=O)NCc2ccccc2)Cc2ccc(C(=O)Nc3cc(-c4ccccc4)ccc3N)cc2)cc1	0.039		2.62	11.1	> 10		0.85	> 10		< 15		36	inactive
Cc1cc(C)cc(C(=O)N(CCCCCC(=O)Nc2ccccc2N)CC(=O)NCc2ccccc2)c1	1.16	20.9	8.71	13.7	0.25	1.6	3.93	> 10					
Cc1ccc(CNC(=O)CN(CCCCCC(=O)Nc2ccccc2N)C(=O)c2cc(C)cc(C)c2)cc1	1.1	9.8	4.48	18.2	0.478	5.03	4.57	> 10					
CN(C)c1ccc(C(=O)N(CCCCCC(=O)Nc2cc(F)ccc2N)CC(=O)NCc2ccccc2)cc1	1.98	25.9	13.4	20.2	0.369	3.06	6.82	> 10					
Nc1ccccc1NC(=O)c1ccc(CN(CC(=O)NCc2ccccc2)C(=O)c2cccnc2)cc1	0.103	8.9	1.06	11.2	0.878	0.786	1.01	> 10					
